According to patent publication US7938981B2, “Deicing and heat transfer fluid compositions” (Bioamber S.A.S., priority 2009, dated 2011):
Like-named read-outs stand apart in the source and are kept apart here.

Columns and labels:
[1] = 25% (wt.) concentration in water; cited from earlier work
[2] = Biological Oxygen Demand (BOD5), 5 day test; conditions: 50% (wt.) concentration in water, ratio BOD5 to COD
Description: The oxygen demand of a compound during chemical oxidation and biological degradation is an indication of the persistence of the chemical in the environment. […] BOD is the amount of oxygen required for biological oxidation by bacteria growing under aerobic conditions. The ratio of BOD to COD can be used to assess whether a compound is readily biodegradable. When BOD5 is expressed as a percentage of COD, a BOD5 that is <1% of COD indicates a relatively nonbiodegradable compound and >10% of COD indicates a relatively degradable compound (the subscript “5” denotes a 5 day test).

[3] = 50% (wt.) concentration in water, in five days, value with literature reference 17, cited from earlier work

SMILES	Freezing point [1]	Biodegradability (BOD5/COD)% [2]	Biodegradability (BOD5/COD)% ([2]; listed as Potassium Succinate)	Biodegradability (BOD5/COD)% ([2]; listed as succinate)	Biodegradability (BOD5/COD)% ([3]; listed as Potassium formate)	Biodegradability (BOD5/COD)% ([3]; listed as potassium formate)
OCCO [Ethylene Glycol]	−12.0^20 °C	61%	–	–	–	–
CC(O)CO (stereo not drawn) [Propylene Glycol]	−11.0^21 °C	59%	–	–	–	–
O=C([O-])CCC(=O)[O-].[K+].[K+] [Test No. 1, potassium succinate]	−12.5^14 °C	–	68%	highly biodegradable	–	–
CC(=O)[O-].[K+] [Test No. 2, potassium acetate]	−18.0^14 °C	highly biodegradable	–	–	–	–
O=C[O-].[K+] [Test No. 3, potassium formate]	−15.0^17 °C	–	–	–	100%^17	100%
